{
  "source": "patent US8492362B1",
  "about": "“5-(E)-Bromovinyl uracil analogues and related pyrimidine nucleosides as anti-varicella zoster virus agents and methods of use” (priority 2011, dated 2013)",
  "key": {"[1]": {"details": "herpes zoster patients, 125 mg/day; cited from earlier work"}, "VZV-BAC-Luc [2]": {"test_system": "VZV-BAC-Luc", "details": "36 mg/kg/day subcutaneously from osmotic pumps; cited from earlier work"}, "[3]": {"test_system": "human foreskin fibroblasts (HFFs)", "assay": "Neutral red dye uptake cytotoxicity assay in HFFs", "assay_type": "cell-based", "details": "35 nM", "method": "The neutral red (NR) cytotoxicity assay was performed as described previously (Rowe et al.) and is based on the method of (Babich et al., 2002).\nTo determine the toxicity of L-BHDU in culture, a neutral red dye uptake assay was performed. The amount of dye absorbed is directly proportional to cell number and membrane integrity (Repetto et al., 2008). Primary human foreskin fibroblasts (HFFs) were treated with either 35 nM staurosporine to induce apoptosis, DMSO diluent alone, or 0.1 to 200 μM L-BHDU, refreshed daily. The uptake of neutral red dye was evaluated at 0, 24, 48, and 72 h post treatment. Absorbance values from 6 replicates at each dose were averaged and plotted against treatment time (FIG. 1A). […] In the cultures treated with 200 μM L-BHDU or DMSO at an equivalent diluent concentration, cell viability declined between 48-72 h. […] This substantiates previous reports that L-BHDU caused no cell growth arrest up to 200 μM in HEL 299 cells (human embryonic lung) (Li et al., 2000)."}, "VZV-BAC-Luc [4]": {"test_system": "VZV-BAC-Luc", "assay_type": "in vivo, Varicella-zoster virus", "details": "3 mg/mL in drinking water"}, "VZV": {"test_system": "VZV", "details": "Oliver et al., 2008; cited from earlier work"}, "[5]": {"details": "3 mg/mL in drinking water"}, "VZV-BAC-Luc [6]": {"test_system": "VZV-BAC-Luc", "assay": "VZV-BAC-Luc dose-response in human skin organ culture (SOC)", "details": "read-out: EC50 in skin organ culture (SOC), skin explants, Day 6 (6 dpi)"}, "VZV-BAC-Luc [7]": {"test_system": "VZV-BAC-Luc", "assay_type": "cell-based, Varicella-zoster virus", "details": "HFF at 48 hpi, read-out: EC50 in HFF, prodrug study"}},
  "note": "Like-named read-outs stand apart in the source and are kept apart here.",
  "data": [
    {"compound": "O=c1[nH]c(=O)n([C@H]2C[C@H](O)[C@@H](CO)O2)cc1/C=C/Br", "note": "[brivudin, (E)-5-(2-bromovinyl)-2′-deoxyuridine]", "values": [
      {"measurement": "Cmax (plasma)", "setting": "[1]", "result": 1700, "unit": "ng/mL"}
    ]},
    {"compound": "O=C(O)CP(=O)(O)O", "note": "[phosphonoacetic acid (PAA), phosphonoacetic acid]", "values": [
      {"measurement": "effect on VZV growth in SCID-Hu model (Rowe et al.)", "setting": "VZV-BAC-Luc [2]", "result": "significantly reduced VZV growth"}
    ]},
    {"compound": "CN[C@@H]1C[C@H]2O[C@@](C)([C@@H]1OC)n1c3ccccc3c3c4c(c5c6ccccc6n2c5c31)C(=O)NC4", "note": "[staurosporine, reference compound]", "values": [
      {"measurement": "cell viability, positive control for cell death", "setting": "[3]", "result": "no viable cells were detected"}
    ]},
    {"compound": "CC(C)[C@H](N)C(=O)OCCOCn1cnc2c(=O)[nH]c(N)nc21", "note": "[valaciclovir, reference compound]", "values": [
      {"measurement": "antiviral effect in SCID-Hu mice", "setting": "VZV-BAC-Luc [4]", "result": "no antiviral effect"},
      {"measurement": "average VZV growth rate", "setting": "VZV-BAC-Luc [4]; n=5", "result": "0.62±0.05", "unit": "log10 photons/s/day"},
      {"measurement": "antiviral effect in SCID-Hu mice", "setting": "VZV-BAC-Luc [4]; listed as VACV", "result": "not effective"},
      {"measurement": "effect on VZV replication in SCID-Hu mice", "setting": "VZV", "result": "little to no effect"},
      {"measurement": "loss of body weight", "setting": "[5]", "result": "> 20", "unit": "%"}
    ]},
    {"compound": "CC(C)C(N)C(=O)OCC1OCC(n2cc(C=CBr)c(=O)[nH]c2=O)O1", "note": "(stereo not shown) [valyl derivative]", "values": [
      {"measurement": "EC50", "setting": "VZV-BAC-Luc [6]", "result": 50, "unit": "nM"},
      {"measurement": "EC50", "setting": "VZV-BAC-Luc [7]", "result": 38, "unit": "nM"}
    ]}
  ]
}
